# Entries after “also recorded” stand apart in the source; their conditions may differ.
# Columns and labels:
# [1] = tested on: Hakai-MDCK cell lines (clone 4 and clone 11); test: MTT cell viability assay, Hakai-MDCK; assay type: cell-based; settings: Hakai-MDCK clone 4 and clone 11, compared with MDCK
# Description: For cytotoxicity assays, 1×10^4 cells were seeded per well into a 96-well plate. After 24 h cells were treated with the indicated inhibitors for 72 h and a MTT colorimetric cell viability assay was performed following manufacturer's instructions (Sigma Aldrich, St Louis, Mo.). Absorbance was measured at 570 and 630 nm using a Multiskan Plus Reader (Nanoquant Infinite M200 Tecan Trading AG, Switzerland). Dose-response curves were designed with Graph Pad Prism Software and the half-maximal inhibitory concentration (IC50) values were calculated. Represented data are the mean±SEM of at least three independent experiments with six replicates per condition.
# [2] = tested on: Hakai-MDCK xenograft tumours; test: Tumour xenograft model (Hakai-MDCK cells in nude mice); assay type: in vivo
# Description: Xenografts experiments were performed in Experimental Surgery Unit—Technological Training Center from INIBIC in compliance with the European Community Law (86/609/EEC) and the Spanish law (R.D. 53/2013). The experiment was approved by the Ethics Committee for Animal Experimentation of Xerencia de Xestion Integrada da Coruna (XXIAC). Mice were in a 12/12 hours light/dark cycle with water and food available ad libitum. Six weeks old athymic nu/nu mice were randomly distributed in groups. One million of MDCK cells, resuspended in DMEM without serum and antibiotic, were subcutaneously inoculated in both flanks in two groups of 3 animals. The same number of Hakai-MDCK cells were injected in two groups of 4 animals. […] Then, half of the animals were treated with Hakin-1 (5 mg/kg) and the other half with the same concentration of DMSO every 3 days. Tumour outgrowth was monitored twice a week taking measurements of tumour length (L) and width (W) with an electronic calipter. Tumour volume was calculated as pLW2/6. Forty days after inoculation, animals were sacrificed. Tumours, lungs, kidneys and livers were collected and fixed in 4% PFA and embedded in paraffin blocks for histology and/or immunohistochemistry (IHC) analyses.
# Tumours and tissues were deparaffinised, rehydrated and stained with haematoxylin and eosin (H&E) as previously described. Tumour sections (4 μm) were also deparaffinised and hydrated for immunohistochemistry. Antigen retrieval was carried by heating the samples (2100 Retriever; PickCell Laboratories) in citrate buffer (Dako REAL, Denmark) or in EDTA buffer. Then, endogenous peroxidase activity was blocked with peroxidase blocking (DakoCytomation, Denmark). Samples were blocked and permeabilized with 0.2% BSA and 0.1% Tx-100 for 1 hour and incubated with the indicated primary antibodies overnight at 4° C. in a wet chamber. Slides were incubated for 1 hour at room temperature with the secondary antibody and detection was carried our using DAB (DakoReal Envision kit) according to manufacturer instructions. Finally, nuclei were counterstained with Gill's Hematoxylin and mounted with DePeX. Pictures were taken with an Olympus microscope. Quantification of images was performed taken 5 photographs of each animal with Image J programme and the represented results are shown as mean±SEM. The number of mitosis was counted in sections stained with H&E. In this case, ten pictures of each tumour were taken with an Olympus BX50 microscope (objective 40×) and the number of mitosis was counted manually. Results are represented as mean±SEM and a representative photograph is shown for each condition.
# Real-time PCR was used to study the presence of metastasis in the lung mice. Primers for HA epitope and Hakai present in ectopic HA-tagged Hakai expressed in MDCK-Hakai cells (5′-[…]-3′; 5″-[…]-3′) were used for the quantification. Primers for mouse apolipoprotein B (apob) (5′-[…]-3′; 5′-[…]-3′) were used as endogenous control. MDCK cell line was used as negative control. Lung DNA was extracted from 10-15 sections of paraffin blocks (4 μm) using with QIAamp DNA Mini Kit (Qiagen). The amplification and quantification of DNA was carried by quantitative PCR in technical triplicates by using a LightCycler 480 real-time lightcycler (Roche). Relative DNA levels were calculated by 2^−ΔΔCt method.
# Tissue sections from tumours were deparaffinised and rehydrated using standard protocols. The slides were rinsed twice with PBS and treated with citrate buffer buffer (Dako REAL, Denmark) in microwave at 350 W for 5 min. The tissue sections were then analysed with an in situ Cell Death Detection Kit, Fluorescein (Roche) following the manufacturer's instructions. Then, slides were incubated with Hoechst for 5 min in darkness. The reaction was visualized under an epifluorescence Olympus microscope using 20× objective.
# HT-29 cells = test: Western blotting of EMT markers, HT-29; assay type: cell-based, human; settings: HT-29; 48 h
# Description: For western blot analysis, cells were treated with the indicated inhibitors for 48 h and the whole cell extracts were obtained as described previously. Twenty micrograms of lysates were resolved on a 10% polyacrilamide SDS-PAGE followed by western blot analysis performed as previously described. For immunofluorescence assays cells were grown for 24 h on glass coverslips and treated with the indicated inhibitors for 48 h. Cells were fixed with 4% PFA for 15 min, permeabilized with 0.5% […] and incubated with E-cadherin antibody for 2 h. Coverslips were incubated with fluorescein-tagged secondary antibody (Dakopatts, Sweden) for […]. Finally coverslips were mounted with ProLong Gold antifade reagent (LifeTech, UK) and images were taken in epifluorescence microscope (Olympus) using 40× objective. Immunofluorescence of E-cadherin and DNA content analysis for FIGS. 22-23 were performed culturing of HT-29 human colorectal adenocarcinoma cell line in 384-well plates with densities of 3,000 cells per well in a total volume of 25 μl. After the completion of the staining, four images (2×2 array) of each well were taken with Vala Sciences' SIM™ with a 20× objective. Each image was acquired as a SIM Synthetic Focus with a z-stack range of 6 μm with 1 μm steps. The SIM Synthetic Focus feature will compile a “best focus” images from multiple images. One set of SIM Synthetic Focus images were taken in the DAPI channel for Hoechst 33342 staining, and another set of images were taken in the FITC channel for anti-E-cadherin-AlexaFluor488 labeling and analysed by Structured Illumination Microscopy (SIM™) platform to image the cells and Vala's CyteSeer® Cell-Cell Junction Algorithm to quantify the degree of expression and intracellular location of E-cadherin Vala's CyteSeer® Software can also measure relative DNA content by analyzing Total Integrated Intensity (TII) of the Nuclear Image (Ni) on the Nuclear Mask (Nm). This analysis was performed by Vala Science. Twenty compounds from were assayed in a “blinded” manner, at 2 test concentrations in 6 replicate wells for first assay and 3 replicate for second assay.
# [3] = Hakai-MDCK xenograft tumours, immunohistochemistry
# [4] = Hakai-MDCK xenograft, nude mice, 5 mg/kg
smiles,measurement,setting,value
"O=C(O)c1ccc(-n2nnnc2SCC(=O)c2ccc([N+](=O)[O-])cc2)cc1 [Hakin-1, 4-(5-[2-(4-nitrophenyl)-2-oxoethyl]thiol-1H-tetrazol-1-yl)benzoic acid]","sensitivity to treatment (cell viability, MTT)",[1],more sensitive
same,micrometastasis in lung (quantitative PCR of HA-tagged Hakai DNA),"[2]; Hakai-MDCK xenograft mice, vs DMSO treated mice",significant reduction of micrometastasis
same,Cortactin expression (immunohistochemistry),[2]; Hakai-MDCK xenograft tumours,recovered
same,apoptosis (TUNEL assay),[2]; Hakai-MDCK xenograft tumours,does not affect cell apoptosis; also recorded: no effect on apoptosis was detected
same,mitotic-index,"[2]; Hakai-MDCK xenograft tumours, H&E",markedly reduce
same,number of Ki67-positive cells,[2]; [3],markedly reduce
same,number of blood vessels (CD31 angiogenic marker),[2]; [3],strong reduction on the number of blood vessels
same,N-cadherin mesenchymal marker expression (immunohistochemistry),"[2]; Hakai-MDCK xenograft tumours, vs DMSO treated mice",strongly reduced
same,tumour cell morphology (H&E),[2]; [4],induction of tumour differentiation and an increase in cytoplasm size
same,tumour-cell infiltration in blood vessels (H&E),[2]; [4],no infiltration was detected
same,xenograft tumour growth,"[2]; Hakai-MDCK xenograft, nude mice, 5 mg/kg every 3 days, vs DMSO, 5 mg/kg",inhibits tumour growth; also recorded: potent effect on inhibiting xenograft tumour growth; also recorded: strong antitumor effect; also recorded: inhibited tumor growth
same,tissue damage / systemic toxicity (H&E of organs),"[2]; nude mice treated with 5 mg/kg, 5 mg/kg",Intact cell morphology and tissue structure of liver and kidney; also recorded: no damage was observed in lung and kidney tissues; also recorded: apparently without systemic toxicity
same,Cortactin expression levels (western blotting),HT-29 cells,increase expression levels
same,E-cadherin levels (western blotting),HT-29 cells,increase E-cadherin levels
same,Vimentin mesenchymal marker (western blotting),HT-29 cells,reduced
